“And” between values parts separate entries of the source, which are not always exact repeats. Identical values can stand only once.
Experiments:
[1] = target: T1, cytoplasmatic receptors of glucocorticoids (Homo sapiens, UniProt P04150); assay: Interaction with cytoplasmatic receptors of glucocorticoids; format: binding
T1 construct: cytoplasmatic receptors of glucocorticoids
From the text: The hormonal effect of 11-desoxy-17α-hydroxy-21-[p-di-(2-chloroethyl)aminophenylacetate] corticosterone is associated with exhibition of a glucocorticoidal activity thereby.

[2] = tested on: MOPG-406; assay: Antitumor effect on grafted hemoblastoses (MOPC-406), extension of lifespan; format: in vivo, mice and rats; conditions: in vivo
[3] = tested on: Spontaneous mammary tumors of mice; assay: Effect on spontaneous breast tumors in repeated treatment courses; format: in vivo
From the text: (§1) For the study of the antitumor activity of the compounds according to the present invention use was made of regrafted hemoblastoses, grafted solid tumors, induced and spontaneous tumors of mice and rats. The following models were used: L 1210, P-388, hemocytoblastosis La, MOPC-406, viral lympholeukosis Mazurenko LMC-1, Ca-755, mammary carcinoma metastasizing into lungs KML, alveolar mammary cancer RMK-1, small intenstine adenocarcinoma AKATON, large intestine adenocarcinoma AKATOL, Lewis lung carcinoma LL, lung adenocarcinoma RL-67, hepatomae G-22c, G-60, G-61, sarcomae S-37 and S-180, DMBA (dimethylbenzanthracene)-induced and spontaneous mammary tumors, and […] (dimethylhydrazine)-induced tumors of the large intestine.
(§2) The compounds were administered to the animals hypodermally in kernel oil. For the purpose of comparison, a known hormonocytostatic estracyte (estra-1,3,5-(10)treine-3,17β-diol-3N-[bis-(2-chloroethyl)carbamate-17-sodium phosphate] was used which was administered hypodermally in a solution of a 0.9% NaCl, chlorphenacyl and chloroambucyl which were administered intraperitoneally in a 10% solution of ethanol, sarcolysine (β-[p-di(2-chloroethyl)aminophenyl]-α-alanine hydrochloride)--intraperitoneally in a 0.9% solution of NaCl, prednisolone (pregnadiene-1,4-triol-11β,17α,21-dione-3,20)--per os in a starch size.
(§3) Criteria of the antitumor activity of the compounds according to the present invention are: extension of the lifespan of the animals (ELA, %) and tumor growth inhibition (TGI, %). [formula] T--average lifespan of the treated animals; C--average lifespan of the control animals. [formula] O--average tumor volume in the group of treated animals; K--average tumor volume in the group of control animals.
In the case of using spontaneous or induced tumors, by means of carcinogenic substances, the criteria of the antitumor effect are: TGI, % or decrease in the tumor size, %, as compared to its initial value. The treatment of spontaneous and induced tumors was initiated after achieving, by these tumors, of a particular size excluding the possibility of a spontaneous regression.

[4] = tested on: acceptor regions of chromatin of tumoral and normal cells (kidney tumor PA, normal kidney); assay: Penetration into the cell nucleus and interaction with chromatin; parameters: species or system line Wistar; conditions: kidney tumor PA of rats
[5] = tested on: Ca-755; assay: Antitumor effect on grafted solid tumor Ca-755; format: in vivo, mice and rats; conditions: in vivo
[6] = tested on: cytoplasmatic receptors of glucocorticoids in human lung cancer; assay: Inhibition of specific combining of [^3 H]-dexamethazone, human lung cancer; format: binding
From the text: The inhibition, thereby, of a specific combining of [^3 H]-dexamethazone in tumors of animals reaches 70-100%. 11-Desoxy-17-α-hydroxy-21-[p-di(2-chloroethyl)aminophenylacetate] corticosterone also reacts with cytoplasmatic receptors of glucocorticoids in tumors in human beings.

[7] = tested on: Small intestine adenocarcinoma AKATON; assay: Duration of the antitumor effect, small intestine adenocarcinoma AKATON; format: in vivo, mice and rats
From the text: as §1
The studies were carried out on line mice and their first-generation hybrids, as well as on mongrel mice and rats.
as §2, §3

[8] = tested on: L 1210; assay: Antitumor effect on grafted hemoblastoses (L 1210), extension of lifespan; format: in vivo, mice and rats; conditions: in vivo, sc

T1 sequence (P04150 whole entry): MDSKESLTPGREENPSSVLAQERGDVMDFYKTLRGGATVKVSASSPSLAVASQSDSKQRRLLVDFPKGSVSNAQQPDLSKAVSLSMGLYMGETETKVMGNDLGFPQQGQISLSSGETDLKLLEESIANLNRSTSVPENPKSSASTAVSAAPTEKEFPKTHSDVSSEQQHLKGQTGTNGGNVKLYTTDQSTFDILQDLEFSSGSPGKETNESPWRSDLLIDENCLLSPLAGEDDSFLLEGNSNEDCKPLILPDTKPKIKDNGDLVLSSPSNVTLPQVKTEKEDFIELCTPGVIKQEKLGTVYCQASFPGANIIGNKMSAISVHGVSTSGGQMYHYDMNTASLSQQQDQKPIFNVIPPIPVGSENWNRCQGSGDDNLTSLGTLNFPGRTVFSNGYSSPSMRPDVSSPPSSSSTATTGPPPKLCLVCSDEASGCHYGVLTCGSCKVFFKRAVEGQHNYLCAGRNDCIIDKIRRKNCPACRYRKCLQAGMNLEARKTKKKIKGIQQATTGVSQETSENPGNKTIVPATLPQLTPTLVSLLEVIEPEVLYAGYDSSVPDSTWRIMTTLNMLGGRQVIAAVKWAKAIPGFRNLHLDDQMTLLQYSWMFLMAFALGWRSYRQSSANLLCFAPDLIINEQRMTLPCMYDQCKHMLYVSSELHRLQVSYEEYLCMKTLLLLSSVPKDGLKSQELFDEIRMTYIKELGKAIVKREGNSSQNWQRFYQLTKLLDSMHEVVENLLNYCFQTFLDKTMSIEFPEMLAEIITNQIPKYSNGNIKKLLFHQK

SMILES: C[C@]12CCC(=O)C=C1CC[C@@H]1[C@@H]2CC[C@@]2(C)[C@H]1CC[C@]2(O)C(=O)COC(=O)Cc1ccc(N(CCCl)CCCl)cc1 [11-desoxy-17α-hydroxy-21-[p-di(2-chloroethyl)-aminophenylacetate] corticosterone]
- Kd [1]: 95 nM
- interaction with cytoplasmatic receptors of glucocorticoids ([1]; [^3 H]-dexamethazone): interacts with cytoplasmatic receptors of glucocorticoids and inhibits combining of [^3 H]-dexamethazone therewith
- Extension of the lifespan of the animals (ELA) [2]: 76%
- activity in repeated treatment courses ([3]; Table 4): reveals activity in repeated treatment courses
- reduction in size of spontaneous tumors in breasts ([3]; compared to the size prior to the treatment): causes reduction in size of induced and spontaneous tumors
- Increased lifespan ([3]; spontaneous, mice, 15 mg/kg/24 h × 5, 2 courses, 3 weeks interval): 11%
- Decrease or increase (+) of the tumor, % of the initial one ([3]; spontaneous, mice, 15 mg/kg/24 h × 5, 2 courses, 3 weeks interval, week 1): 23%
- Decrease or increase (+) of the tumor, % of the initial one ([3]; spontaneous, mice, 15 mg/kg/24 h × 5, 2 courses, 3 weeks interval, week 2): 37%
- Decrease or increase (+) of the tumor, % of the initial one ([3]; spontaneous, mice, 15 mg/kg/24 h × 5, 2 courses, 3 weeks interval, week 3): +7%
- Decrease or increase (+) of the tumor, % of the initial one ([3]; spontaneous, mice, 15 mg/kg/24 h × 5, 2 courses, 3 weeks interval, week 4): 64%
- Decrease or increase (+) of the tumor, % of the initial one ([3]; spontaneous, mice, 15 mg/kg/24 h × 5, 2 courses, 3 weeks interval, week 5): 20%
- Decrease or increase (+) of the tumor, % of the initial one ([3]; spontaneous, mice, 15 mg/kg/24 h × 5, 2 courses, 3 weeks interval, week 6): 50%
- Decrease or increase (+) of the tumor, % of the initial one ([3]; spontaneous, mice, 15 mg/kg/24 h × 5, 2 courses, 3 weeks interval, week 7): 25%
- Decrease or increase (+) of the tumor, % of the initial one ([3]; spontaneous, mice, 15 mg/kg/24 h × 5, 2 courses, 3 weeks interval, week 8): 16%
- penetration into cell nucleus and interaction with chromatin [4]: penetrates into the cell nucleus and interacts with acceptor regions of chromatin of both tumoral and normal cells
- Extension of the lifespan [5]: 73%
- Maximum tumor growth inhibition [5]: 99%
- Tumor growth inhibition [5]: 92% and 73% and 82%
- Maximum tumor growth inhibition ([5]; 45 mg/kg): 94%
- inhibition of specific combining of [^3 H]-dexamethazone [6]: 83%
- Extension of the lifespan ([7]; 15 mg/kg/24 h × 5, days 2-6): 46%
- Tumor growth inhibition ([7]; 15 mg/kg/24 h × 5, days 2-6, day 15 of experiment): 66%
- Tumor growth inhibition ([7]; 15 mg/kg/24 h × 5, days 2-6, day 22 of experiment): 55%
- Tumor growth inhibition ([7]; 15 mg/kg/24 h × 5, days 2-6, day 29 of experiment): 46%
- Extension of the lifespan of the animals (ELA) [8]: 31%

— US4933332A, “11-desoxy-17-α-hydroxycorticosterone derivatives” (priority 1988, dated 1990)
